The values that follow come from patent US8722895B2, “Prolyl hydroxylase inhibitors and method of use” (Akebia Therapeutics Inc., priority 2006, dated 2014).

Experiment [1] deals with EPO. Nature of the experiment: Mouse Serum EPO Assay (mouse ischemic hindlimb study). The experiment is classed as in vivo. The note with it: for EPO response: in vivo response, mouse serum EPO. As for the experimental part:
(§1) Mouse Ischemic Hindlimb Study
(§2) All animal work is conducted in accordance with the Guide for the Care and Use of Laboratory Animals (National Academy of Sciences; Copyright® 1996) and the Institutional Animal Care and Use Committee guidelines at Procter and Gamble Pharmaceuticals. We studied 9-10 week old male C57B1/6 mice from Charles River Laboratory (Portage, Mich.). The mice are orally dosed with vehicle (aqueous carbonate buffer, 50 mM; pH 9.0) or compound 1 in vehicle at 50 mg/kg or 100 mg/kg. The animals are dosed three times: day 1 at Sam and 5 pm, day 2 at 8 am. One hour after the first dose, unilateral arterial ligation is performed under anesthesia using isoflurane. The femoral artery is ligated proximal to the origin of the popliteal artery. The contralateral limb underwent a sham surgical procedure. Ligation is performed in an alternating fashion between right and left hindlimbs. Two hours after Sam dosing on day 2, we obtained blood by ventricular stick while the mice are anesthetized with isoflurane. Serum samples for EPO analysis are obtained using gel clot serum separation tubes. Heart, liver, and gastrocnemius muscles are harvested, snap-frozen in liquid nitrogen, and stored in −80° C. until use.
The mouse serum EPO is detected using Mouse Quantikine Erythropoietin ELISA kit from R&D Systems according to manufacturer's instructions.

Experiment [2] deals with HIF-1α. Kind of experiment: Mouse Tissue HIF Western Blot Analysis. The experiment is classed as in vivo. The note with it: FIG. 1. As to the method:
as §1, §2
Mouse Tissue HIF Western Blot Analysis
Tissues from mice stored at −80° C. are powdered with mortar and pestle chilled with liquid nitrogen. […]
On the technique in general: In western blotting, separated proteins are transferred to a membrane and probed.

`Cc1ccc(-c2ccc(C(=O)NCC(=O)O)c(O)c2)cc1` [[(3-Hydroxy-4′-methyl-biphenyl-4-carbonyl)-amino]-acetic acid]: the EPO response entry in experiment [1] is listed as “yes”.
As to `COC(=O)CNC(=O)c1ncc(-c2ccccc2Cl)cc1O` [{[5-(2-Chlorophenyl)-3-hydroxy-pyridine-2-carbonyl]-amino}-acetic acid methyl ester], the EPO response result in experiment [1] is reported as “yes”.
For the compound `COC(=O)CNC(=O)c1ncc(-c2cccc(Cl)c2)cc1O` [{[5-(3-Chloro-phenyl)-3-hydroxy-pyridine-2-carbonyl]-amino}acetic acid methyl ester], in experiment [1], the EPO response result is “yes”.
As for `Cc1ccc(-c2cnc(C(=O)NCC(=O)O)c(O)c2)cc1` [[(3-Hydroxy-5-(4-methylphenyl)pyridine-2-carbonyl)amino]-acetic acid], in experiment [1], the EPO response entry is on record as “yes”.
Take `O=C(O)CNC(=O)c1ncc(-c2cccc(Cl)c2)cc1O` [{[5-(3-Chlorophenyl)-3-hydroxypyridine-2-carbonyl]amino}-acetic acid]: the EPO response result in experiment [1] is recorded as “yes”. In addition, the “erythropoietin level versus vehicle in mouse serum” value in experiment [1] (mouse serum after oral dosing, FIG. 2) is “elevated”. In experiment [2], the “stabilization of HIF-1α in mouse liver (immunoblot of nuclear extracts)” value is reported as “stabilization of HIF-1α”.
Turning to `N#Cc1ccc(-c2cnc(C(=O)NCC(=O)O)c(O)c2)cc1` [{[5-(4-Cyanophenyl)-3-hydroxypyridine-2-carbonyl]amino}-acetic acid], in experiment [1], the EPO response entry is “yes”.
In the case of `O=C(O)CNC(=O)c1ncc(-c2ccccc2Cl)cc1O` [{[5-(2-Chlorophenyl)-3-hydroxypyridine-2-carbonyl]amino}-acetic acid], the EPO response result in experiment [1] was “yes”.
On to “{[5-(4-Chlorophenyl)-3-hydroxypyridine-2-carbonyl]amino}-acetic acid”, for which, in experiment [1], the EPO response entry is on record as “yes”.
